26 compounds from ChEMBL document CHEMBL1147945, “R-isomers of Arg-Gly-Asp (RGD) mimics as potent alphavbeta3 inhibitors” (Bioorg Med Chem, 2007) can be followed below.

The target of one assay is Integrin alpha-V/beta-3 (Homo sapiens, UniProt P05106+P06756). Briefly: Inhibition of alphaVbeta3 integrin receptor expressed in human 293 cells. Format: cell-based, HEK293.
The target in another assay is Integrin alpha-V/beta-6 (Homo sapiens, UniProt P06756+P18564). As to the kind of experiment: Inhibition of alpha-V-beta-6 integrin receptor in human HT29 cells. The format is cell-based, HT-29.
Chain of Integrin alpha-V/beta-6 (P06756 31-889 limits assumed): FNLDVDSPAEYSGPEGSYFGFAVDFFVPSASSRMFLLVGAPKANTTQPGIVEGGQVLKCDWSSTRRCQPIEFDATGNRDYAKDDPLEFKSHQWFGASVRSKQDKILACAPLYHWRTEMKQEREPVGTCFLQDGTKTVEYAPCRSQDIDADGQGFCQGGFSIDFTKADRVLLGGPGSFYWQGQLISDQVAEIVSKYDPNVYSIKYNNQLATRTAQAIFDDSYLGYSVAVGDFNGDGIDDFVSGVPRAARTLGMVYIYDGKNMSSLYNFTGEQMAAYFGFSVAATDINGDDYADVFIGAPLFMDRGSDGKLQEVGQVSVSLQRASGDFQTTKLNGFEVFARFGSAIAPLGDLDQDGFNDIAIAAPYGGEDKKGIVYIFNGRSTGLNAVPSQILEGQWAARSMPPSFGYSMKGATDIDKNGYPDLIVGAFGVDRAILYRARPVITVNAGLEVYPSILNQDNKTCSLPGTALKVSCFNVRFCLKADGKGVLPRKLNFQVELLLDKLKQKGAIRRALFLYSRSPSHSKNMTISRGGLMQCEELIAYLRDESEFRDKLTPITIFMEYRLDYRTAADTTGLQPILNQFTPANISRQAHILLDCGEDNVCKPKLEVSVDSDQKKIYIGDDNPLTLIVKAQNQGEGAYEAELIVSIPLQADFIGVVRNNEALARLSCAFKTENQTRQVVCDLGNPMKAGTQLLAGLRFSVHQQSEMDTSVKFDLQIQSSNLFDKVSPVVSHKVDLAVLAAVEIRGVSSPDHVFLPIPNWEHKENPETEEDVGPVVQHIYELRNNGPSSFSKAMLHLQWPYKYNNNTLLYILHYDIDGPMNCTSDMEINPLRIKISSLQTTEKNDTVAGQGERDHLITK
Chain of Integrin alpha-V/beta-6 (P06756 891-1048 limits assumed): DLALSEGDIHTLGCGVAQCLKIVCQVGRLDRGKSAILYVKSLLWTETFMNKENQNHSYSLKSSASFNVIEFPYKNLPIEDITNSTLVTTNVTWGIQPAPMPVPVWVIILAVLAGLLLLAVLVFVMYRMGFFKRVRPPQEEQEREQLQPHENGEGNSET
Chain of Integrin alpha-V/beta-6 (P18564 22-788 limits assumed): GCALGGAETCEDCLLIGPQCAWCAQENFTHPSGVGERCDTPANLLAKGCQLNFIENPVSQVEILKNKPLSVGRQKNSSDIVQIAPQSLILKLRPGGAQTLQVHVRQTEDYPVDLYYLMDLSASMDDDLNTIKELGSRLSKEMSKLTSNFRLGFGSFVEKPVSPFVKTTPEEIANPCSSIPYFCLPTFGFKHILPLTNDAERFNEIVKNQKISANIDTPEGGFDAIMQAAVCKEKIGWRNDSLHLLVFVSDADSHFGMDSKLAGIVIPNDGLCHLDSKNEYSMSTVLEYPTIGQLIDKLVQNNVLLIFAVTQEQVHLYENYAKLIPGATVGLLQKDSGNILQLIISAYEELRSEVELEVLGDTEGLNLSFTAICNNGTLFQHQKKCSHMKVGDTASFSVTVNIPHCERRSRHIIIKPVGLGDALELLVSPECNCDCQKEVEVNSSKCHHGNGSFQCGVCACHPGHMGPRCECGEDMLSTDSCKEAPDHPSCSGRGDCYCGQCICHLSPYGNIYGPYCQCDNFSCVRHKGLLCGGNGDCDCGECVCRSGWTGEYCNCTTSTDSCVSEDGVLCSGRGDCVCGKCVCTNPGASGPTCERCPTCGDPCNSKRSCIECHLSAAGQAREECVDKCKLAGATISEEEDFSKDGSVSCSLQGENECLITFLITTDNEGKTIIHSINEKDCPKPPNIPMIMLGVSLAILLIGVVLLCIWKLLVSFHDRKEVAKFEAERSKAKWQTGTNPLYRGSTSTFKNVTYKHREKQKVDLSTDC

Chain of Integrin alpha-V/beta-3 (P05106 27-788 limits assumed): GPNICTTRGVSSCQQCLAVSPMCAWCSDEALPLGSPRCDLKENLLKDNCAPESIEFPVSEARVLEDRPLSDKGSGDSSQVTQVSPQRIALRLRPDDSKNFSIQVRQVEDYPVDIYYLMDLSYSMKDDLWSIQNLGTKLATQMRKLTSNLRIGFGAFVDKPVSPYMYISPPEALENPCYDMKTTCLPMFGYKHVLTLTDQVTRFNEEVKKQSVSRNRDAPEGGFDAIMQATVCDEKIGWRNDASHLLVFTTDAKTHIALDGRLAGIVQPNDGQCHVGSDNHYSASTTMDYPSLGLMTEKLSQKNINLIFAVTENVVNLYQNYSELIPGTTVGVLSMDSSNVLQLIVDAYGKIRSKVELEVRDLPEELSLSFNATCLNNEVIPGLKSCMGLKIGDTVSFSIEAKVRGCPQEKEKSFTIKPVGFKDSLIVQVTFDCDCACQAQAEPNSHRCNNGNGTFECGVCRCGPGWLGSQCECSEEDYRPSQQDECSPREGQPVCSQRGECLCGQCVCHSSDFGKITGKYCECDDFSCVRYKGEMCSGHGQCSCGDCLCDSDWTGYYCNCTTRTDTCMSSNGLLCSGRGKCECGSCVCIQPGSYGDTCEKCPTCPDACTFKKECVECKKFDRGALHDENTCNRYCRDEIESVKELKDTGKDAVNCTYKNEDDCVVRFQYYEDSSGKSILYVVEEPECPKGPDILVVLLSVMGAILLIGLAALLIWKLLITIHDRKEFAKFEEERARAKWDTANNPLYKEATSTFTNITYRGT
Chain of Integrin alpha-V/beta-3 (P06756 31-889 limits assumed): as the sequence (P06756 31-889 limits assumed) above
Chain of Integrin alpha-V/beta-3 (P06756 891-1048 limits assumed): as the sequence (P06756 891-1048 limits assumed) above

The compound `O=C(O)C[C@H](NC(=O)CNC(=O)c1cc(O)cc(N=C2NCC(O)CN2)c1)c1cc(Br)cc(Cl)c1O` (stereo not given in full) gave an IC50 against Integrin alpha-V/beta-3 of 2.7 nM.
The same measure, in the same setting: to `O=C(O)C[C@H](NC(=O)CNC(=O)c1cccc(NC2=NCCCN2)c1)c1cc(Cl)cc(Br)c1O` belongs 2 nM.
As to `O=C(O)C[C@@H](NC(=O)CNC(=O)c1cc(O)cc(NC2=NCC(F)CN2)c1)c1cc(Cl)cc(Cl)c1` (stereo not given in full), the values for the concentration for half-maximal inhibition (IC50) on Integrin alpha-V/beta-3 and against Integrin alpha-V/beta-6 were 11 nM and 40 nM, respectively.
In the case of `Nc1cc(NC2=NCC(O)CN2)cc(C(=O)NCC(=O)N[C@H](CC(=O)O)c2cc(Cl)cc(Br)c2O)c1` (stereo not given in full), the half-inhibitory concentration (IC50) on Integrin alpha-V/beta-3 was 22 nM; at Integrin alpha-V/beta-6, 8620 nM.
Take `O=C(O)C[C@H](NC(=O)CNC(=O)c1cc(O)cc(NC2=NCC(O)CN2)c1)c1cc(Cl)cc(Br)c1O` (stereo not given in full): the IC50 at Integrin alpha-V/beta-3 is 2.6 nM.
Consider `O=C(O)C[C@@H](NC(=O)CNC(=O)c1cccc(NC2=NCC(O)CN2)c1)c1cc(Br)cc(Br)c1O` (stereo not given in full), for which the IC50 against Integrin alpha-V/beta-3 stood at 10 nM; on Integrin alpha-V/beta-6, 25 nM.
On the same counts, the results for `O=C(O)C[C@@H](NC(=O)CNC(=O)c1cc(O)cc(NC2=NCC(F)(F)CN2)c1)c1cc(Cl)cc(Br)c1O` are 5 nM and 7260 nM.
The corresponding values for `O=C(O)C[C@@H](NC(=O)CNC(=O)c1cc(O)cc(NC2=NCC(O)CN2)c1)c1cc(Br)cc(Br)c1O` (stereo not given in full) are 21 nM and 96 nM.
For `O=C(O)C[C@@H](NC(=O)CNC(=O)c1cc(O)cc(NC2=NCC(O)CN2)c1)c1cc(Cl)cc(I)c1O` (stereo not given in full), the half-inhibitory concentration (IC50) came to 3 nM at Integrin alpha-V/beta-3 and 631 nM against Integrin alpha-V/beta-6.
`Cc1cc(C)c(O)c([C@@H](CC(=O)O)NC(=O)CNC(=O)c2cc(N)cc(NC3=NCC(F)CN3)c2)c1` (stereo not given in full): the IC50 at Integrin alpha-V/beta-3 came to 10 nM; on Integrin alpha-V/beta-6, 65 nM.
On the same counts, the results for `Cc1cc(Cl)cc([C@@H](CC(=O)O)NC(=O)CNC(=O)c2cc(O)cc(NC3=NCC(O)CN3)c2)c1O` (stereo not given in full) are 18 nM and 688 nM.
Consider `O=C(O)C[C@H](NC(=O)CNC(=O)c1cccc(NC2=NCC(F)CN2)c1)c1cc(Cl)cc(Br)c1O` (stereo not given in full), for which, at Integrin alpha-V/beta-3, half-maximal inhibition (IC50) required 0.2 nM.
For the compound `O=C(O)C[C@@H](NC(=O)CNC(=O)c1cccc(NC2=NCCCN2)c1)c1cc(Cl)cc(I)c1O`, the IC50 came to 7 nM against Integrin alpha-V/beta-3 and 10000 nM against Integrin alpha-V/beta-6.
For the compound `O=C(O)C[C@H](NC(=O)CNC(=O)c1cccc(NC2=NCC(O)CN2)c1)c1cc(Cl)cc(Br)c1O` (stereo not given in full), 0.6 nM corresponded to half-maximal inhibition at Integrin alpha-V/beta-3 (IC50).
Same read-out and setting: to `O=C(O)C[C@H](NC(=O)CNC(=O)c1cc(O)cc(NC2=NCCCN2)c1)c1cc(Cl)cc(Br)c1O` belongs 2 nM; to `O=C(O)C[C@H](NC(=O)CNC(=O)c1cc(O)cc(N=C2NCC(O)CN2)c1)c1cc(Cl)cc(Cl)c1O` (stereo not given in full), 0.9 nM.
The same measure, in the same setting: to `O=C(O)C[C@H](NC(=O)CNC(=O)c1cncc(N=C2NCC(O)CN2)c1)c1cc(Cl)cc(Br)c1O` (stereo not given in full) belongs 0.4 nM; to `Cc1cc(C)c(O)c([C@H](CC(=O)O)NC(=O)CNC(=O)c2cc(O)cc(NC3=NCC(O)CN3)c2)c1` (stereo not given in full), 1 nM.
Still for that read-out and setting: to `O=C(O)C[C@H](NC(=O)CNC(=O)c1cc(O)cc(NC2=NCCCN2)c1)c1cc(Cl)cc(Cl)c1O` belongs 0.9 nM; to `Cc1cc(Cl)cc([C@H](CC(=O)O)NC(=O)CNC(=O)c2cc(O)cc(NC3=NCC(O)CN3)c2)c1O` (stereo not given in full), 0.2 nM; to `O=C(O)C[C@H](NC(=O)CNC(=O)c1cc(O)cc(NC2=NCC(O)CN2)c1)c1cc(Cl)cc(I)c1O` (stereo not given in full), 6.4 nM.
`O=C(O)C[C@H](NC(=O)CNC(=O)c1cccc(N=C2NCC(O)CN2)c1)c1cc(Cl)cc(I)c1O` (stereo not given in full) showed an IC50 on Integrin alpha-V/beta-3 of 1.6 nM.
Same read-out and setting: the result for `O=C(O)C[C@H](NC(=O)CNC(=O)c1cncc(NC2=NCC(F)CN2)c1)c1cc(Cl)cc(Br)c1O` (stereo not given in full) reads 0.4 nM.
On the same count and under the same terms, to `O=C(O)C[C@H](NC(=O)CNC(=O)c1cncc(NC2=NCC(O)CN2)c1)c1cc(Br)cc(Cl)c1O` (stereo not given in full) belongs 0.3 nM; to `O=C(O)C[C@H](NC(=O)CNC(=O)c1cc(O)cc(N=C2NCC(F)(F)CN2)c1)c1cc(Cl)cc(Br)c1O`, 5 nM.
Still for that read-out and setting: the result for `O=C(O)C[C@H](NC(=O)CNC(=O)c1cccc(NC2=NCC(O)CN2)c1)c1cc(Cl)cc(Cl)c1O` (stereo not given in full) reads 0.3 nM.
